Experimental data from the OligoGym collection.
HELM strings list units from the 5' end as sugar, base in round brackets, then linkage (d deoxyribose, r ribose, m 2'-O-methyl, p phosphodiester). Strings are as the collection lists them; they lack the last nucleoside at the 3' end of the tested compound. [moe] = 2'-O-(2-methoxyethyl) (MOE); [sp] = phosphorothioate linkage; [m5C] = 5-methylcytosine

Each substance was assayed against SCN2A (assay: mouse, dose not given). Conditions: ASO.

“RNA1{[moe](T)[sp].[moe](T)p.[moe]([m5C])p.[moe](T)p.[moe](A)p.d(T)[sp].d(T)[sp].d(T)[sp].d(T)[sp].d(A)[sp].d(T)[sp].d(A)[sp].d(A)[sp].d(A)[sp].d(T)[sp].[moe](G)p.[moe]([m5C])p.[moe]([m5C])[sp].[moe](G)}$$$$ (last 3' nucleoside missing)” and “RNA1{[moe](T)[sp].[moe](T)p.[moe]([m5C])p.[moe](T)p.[moe](G)p.[moe]([m5C])p.d(A)[sp].d(T)[sp].d(G)[sp].d(T)[sp].d(A)[sp].d(A)[sp].d([m5C])[sp].d([m5C])[sp].d(T)[sp].d(T)[sp].[moe](T)p.[moe](A)[sp].[moe](T)}$$$$ (last 3' nucleoside missing)” are the same in 3 h FOB score: 0 score 0-7 for the first, 0 score 0-7 for the second.

“RNA1{[moe](T)[sp].[moe](T)p.[moe]([m5C])p.[moe](T)p.[moe](G)p.d([m5C])[sp].d(A)[sp].d(T)[sp].d(G)[sp].d(T)[sp].d(A)[sp].d(A)[sp].d([m5C])[sp].d([m5C])[sp].d(T)[sp].[moe](T)p.[moe](T)p.[moe](A)[sp].[moe](T)}$$$$ (last 3' nucleoside missing)” and “RNA1{[moe](T)[sp].[moe](T)p.[moe]([m5C])p.[moe](T)p.d(A)[sp].d(T)[sp].d(T)[sp].d(T)[sp].d(T)[sp].d(A)[sp].d(T)[sp].d(A)[sp].d(A)[sp].d(A)[sp].[moe](T)p.[moe](G)p.[moe]([m5C])p.[moe]([m5C])[sp].[moe](G)}$$$$ (last 3' nucleoside missing)” are the same in 3 h FOB score: 1 score 0-7 for the first, 1 score 0-7 for the second.

Going from “RNA1{[moe](T)[sp].[moe](T)p.[moe]([m5C])p.[moe](T)p.d(G)[sp].d([m5C])[sp].d(A)[sp].d(T)[sp].d(G)[sp].d(T)[sp].d(A)[sp].d(A)[sp].d([m5C])[sp].d([m5C])[sp].[moe](T)p.[moe](T)p.[moe](T)p.[moe](A)[sp].[moe](T)}$$$$ (last 3' nucleoside missing)” to “RNA1{[moe](T)[sp].[moe]([m5C])p.[moe](A)p.[moe](G)p.[moe]([m5C])p.[moe](A)p.d(T)[sp].d(G)[sp].d(T)[sp].d(T)[sp].d(T)[sp].d(A)[sp].d(T)[sp].d([m5C])[sp].d(T)[sp].d(T)[sp].[moe](A)p.[moe](G)[sp].[moe](T)}$$$$ (last 3' nucleoside missing)”, the 3 h FOB score falls from 1 score 0-7 to 0 score 0-7.

Compared with “RNA1{[moe](T)[sp].[moe]([m5C])p.[moe](A)p.[moe](G)p.d([m5C])[sp].d(A)[sp].d(T)[sp].d(G)[sp].d(T)[sp].d(T)[sp].d(T)[sp].d(A)[sp].d(T)[sp].d([m5C])[sp].[moe](T)p.[moe](T)p.[moe](A)p.[moe](G)[sp].[moe](T)}$$$$ (last 3' nucleoside missing)”, “RNA1{[moe](T)[sp].[moe]([m5C])p.[moe](A)p.[moe](T)p.[moe](G)p.[moe]([m5C])p.d(A)[sp].d(T)[sp].d(A)[sp].d(A)[sp].d(T)[sp].d([m5C])[sp].d([m5C])[sp].d([m5C])[sp].d(A)[sp].d(T)[sp].[moe](T)p.[moe](A)[sp].[moe](T)}$$$$ (last 3' nucleoside missing)” is lower in 3 h FOB score: 2.33 score 0-7 for the first, 0 score 0-7 for the second.

“RNA1{[moe](T)[sp].[moe]([m5C])p.[moe](A)p.[moe](T)p.[moe](G)p.d([m5C])[sp].d(A)[sp].d(T)[sp].d(A)[sp].d(A)[sp].d(T)[sp].d([m5C])[sp].d([m5C])[sp].d([m5C])[sp].d(A)[sp].[moe](T)p.[moe](T)p.[moe](A)[sp].[moe](T)}$$$$ (last 3' nucleoside missing)” and “RNA1{[moe](T)[sp].[moe]([m5C])p.[moe](A)p.[moe](T)p.d(G)[sp].d([m5C])[sp].d(A)[sp].d(T)[sp].d(A)[sp].d(A)[sp].d(T)[sp].d([m5C])[sp].d([m5C])[sp].d([m5C])[sp].[moe](A)p.[moe](T)p.[moe](T)p.[moe](A)[sp].[moe](T)}$$$$ (last 3' nucleoside missing)” are the same in 3 h FOB score: 0 score 0-7 for the first, 0 score 0-7 for the second.

First: RNA1{[moe](T)[sp].[moe]([m5C])p.[moe](T)p.[moe](A)[sp].d(T)[sp].d(T)[sp].d(T)[sp].d(T)[sp].d(A)[sp].d(T)[sp].d(A)[sp].d(A)[sp].[moe](A)p.[moe](T)p.[moe](G)p.[moe]([m5C])[sp].[moe]([m5C])}$$$$ (last 3' nucleoside missing)
Second: RNA1{[moe](T)[sp].[moe]([m5C])p.[moe](T)p.[moe](A)p.[moe](T)[sp].d(T)[sp].d(T)[sp].d(T)[sp].d(A)[sp].d(T)[sp].d(A)[sp].d(A)[sp].d(A)[sp].[moe](T)p.[moe](G)p.[moe]([m5C])[sp].[moe]([m5C])}$$$$ (last 3' nucleoside missing)
The 3 h FOB score of the first is lower: 1 score 0-7 for the first, 1.33 score 0-7 for the second.

Compared with “RNA1{[moe](T)[sp].[moe]([m5C])p.[moe](T)p.[moe](A)p.[moe](T)p.[moe](T)[sp].d(T)[sp].d(T)[sp].d(A)[sp].d(T)[sp].d(A)[sp].d(A)[sp].d(A)[sp].d(T)[sp].[moe](G)p.[moe]([m5C])[sp].[moe]([m5C])}$$$$ (last 3' nucleoside missing)”, “RNA1{[moe](T)[sp].[moe]([m5C])p.[moe](T)p.[moe](G)[sp].d([m5C])[sp].d(A)[sp].d(T)[sp].d(G)[sp].d(T)[sp].d(A)[sp].d(A)[sp].d([m5C])[sp].[moe]([m5C])p.[moe](T)p.[moe](T)p.[moe](T)[sp].[moe](A)}$$$$ (last 3' nucleoside missing)” is higher in 3 h FOB score: 1 score 0-7 for the first, 2 score 0-7 for the second.

Going from “RNA1{[moe](T)[sp].[moe]([m5C])p.[moe](T)p.[moe](G)p.[moe]([m5C])[sp].d(A)[sp].d(T)[sp].d(G)[sp].d(T)[sp].d(A)[sp].d(A)[sp].d([m5C])[sp].d([m5C])[sp].[moe](T)p.[moe](T)p.[moe](T)[sp].[moe](A)}$$$$ (last 3' nucleoside missing)” to “RNA1{[moe](T)[sp].[moe]([m5C])p.[moe](T)p.[moe](G)p.[moe]([m5C])p.[moe](A)[sp].d(T)[sp].d(G)[sp].d(T)[sp].d(A)[sp].d(A)[sp].d([m5C])[sp].d([m5C])[sp].d(T)[sp].[moe](T)p.[moe](T)[sp].[moe](A)}$$$$ (last 3' nucleoside missing)”, the 3 h FOB score falls from 1 score 0-7 to 0.33 score 0-7.

“RNA1{[moe](T)[sp].[moe]([m5C])p.[moe](T)p.[moe](G)p.[moe]([m5C])p.[moe](A)p.d(T)[sp].d(G)[sp].d(T)[sp].d(A)[sp].d(A)[sp].d([m5C])[sp].d([m5C])[sp].d(T)[sp].d(T)[sp].d(T)[sp].[moe](A)p.[moe](T)[sp].[moe](A)}$$$$ (last 3' nucleoside missing)” and “RNA1{[moe](T)[sp].[moe]([m5C])p.[moe](T)p.[moe](G)p.[moe]([m5C])p.d(A)[sp].d(T)[sp].d(G)[sp].d(T)[sp].d(A)[sp].d(A)[sp].d([m5C])[sp].d([m5C])[sp].d(T)[sp].d(T)[sp].[moe](T)p.[moe](A)p.[moe](T)[sp].[moe](A)}$$$$ (last 3' nucleoside missing)” are the same in 3 h FOB score: 0 score 0-7 for the first, 0 score 0-7 for the second.

First: RNA1{[moe](T)[sp].[moe]([m5C])p.[moe](T)p.[moe](G)p.d([m5C])[sp].d(A)[sp].d(T)[sp].d(G)[sp].d(T)[sp].d(A)[sp].d(A)[sp].d([m5C])[sp].d([m5C])[sp].d(T)[sp].[moe](T)p.[moe](T)p.[moe](A)p.[moe](T)[sp].[moe](A)}$$$$ (last 3' nucleoside missing)
Second: RNA1{[moe](T)[sp].[moe]([m5C])p.[moe](T)p.[moe](T)p.[moe](T)p.d([m5C])[sp].d(T)[sp].d(T)[sp].d(A)[sp].d(T)[sp].d(T)[sp].d(T)[sp].d([m5C])[sp].d(T)[sp].d(G)[sp].[moe](T)p.[moe](T)p.[moe](T)[sp].[moe]([m5C])}$$$$ (last 3' nucleoside missing)
The 3 h FOB score of the first is lower: 1 score 0-7 for the first, 1.67 score 0-7 for the second.

“RNA1{[moe](T)[sp].[moe]([m5C])p.[moe](T)p.[moe](T)p.d(T)[sp].d([m5C])[sp].d(T)[sp].d(T)[sp].d(A)[sp].d(T)[sp].d(T)[sp].d(T)[sp].d([m5C])[sp].d(T)[sp].[moe](G)p.[moe](T)p.[moe](T)p.[moe](T)[sp].[moe]([m5C])}$$$$ (last 3' nucleoside missing)” and “RNA1{[moe](T)[sp].[moe]([m5C])p.[moe](T)p.[moe]([m5C])p.[moe](T)p.d(T)[sp].d(T)[sp].d([m5C])[sp].d(T)[sp].d(T)[sp].d(A)[sp].d(T)[sp].d(T)[sp].d(T)[sp].d([m5C])[sp].[moe](T)p.[moe](G)p.[moe](T)[sp].[moe](T)}$$$$ (last 3' nucleoside missing)” are the same in 3 h FOB score: 0 score 0-7 for the first, 0 score 0-7 for the second.

“RNA1{[moe](T)[sp].[moe]([m5C])p.[moe](T)p.[moe]([m5C])p.d(T)[sp].d(T)[sp].d(T)[sp].d([m5C])[sp].d(T)[sp].d(T)[sp].d(A)[sp].d(T)[sp].d(T)[sp].d(T)[sp].[moe]([m5C])p.[moe](T)p.[moe](G)p.[moe](T)[sp].[moe](T)}$$$$ (last 3' nucleoside missing)” and “RNA1{[moe](T)[sp].[moe]([m5C])p.[moe]([m5C])p.[moe](A)p.[moe]([m5C])p.[moe](G)p.d(A)[sp].d([m5C])[sp].d(A)[sp].d(T)[sp].d(A)[sp].d(T)[sp].d(T)[sp].d(T)[sp].d(T)[sp].d(T)[sp].[moe]([m5C])p.[moe](T)[sp].[moe](A)}$$$$ (last 3' nucleoside missing)” are the same in 3 h FOB score: 0 score 0-7 for the first, 0 score 0-7 for the second.

Going from “RNA1{[moe](T)[sp].[moe]([m5C])p.[moe]([m5C])p.[moe](A)p.[moe]([m5C])p.d(G)[sp].d(A)[sp].d([m5C])[sp].d(A)[sp].d(T)[sp].d(A)[sp].d(T)[sp].d(T)[sp].d(T)[sp].d(T)[sp].[moe](T)p.[moe]([m5C])p.[moe](T)[sp].[moe](A)}$$$$ (last 3' nucleoside missing)” to “RNA1{[moe](T)[sp].[moe]([m5C])p.[moe]([m5C])p.[moe](A)p.d([m5C])[sp].d(G)[sp].d(A)[sp].d([m5C])[sp].d(A)[sp].d(T)[sp].d(A)[sp].d(T)[sp].d(T)[sp].d(T)[sp].[moe](T)p.[moe](T)p.[moe]([m5C])p.[moe](T)[sp].[moe](A)}$$$$ (last 3' nucleoside missing)”, the 3 h FOB score falls from 1.33 score 0-7 to 0 score 0-7.

Substance “RNA1{[moe]([m5C])[sp].[moe](A)p.[moe](G)p.[moe](T)p.d(T)[sp].d(T)[sp].d(T)[sp].d(T)[sp].d(T)[sp].d([m5C])[sp].d(A)[sp].d(T)[sp].d(T)[sp].d(G)[sp].[moe]([m5C])p.[moe](A)p.[moe](T)p.[moe]([m5C])[sp].[moe]([m5C])}$$$$ (last 3' nucleoside missing)” has a 3 h FOB score of 2 score 0-7.
